Among the data in patent US10654834B2 (Venenum Biodesign, LLC, priority 2016, dated 2020) are EC50 values, retold here.

Counter-ions that a name gives are not always drawn.

For one assay, the target named is T1, mouse TGR5 receptor (Mus musculus, UniProt Q80SS6).
T1 construct: host or cells: HEK293-EBNA (293 c18, ATCC CRL10852)
T1 sequence (Q80SS6 1-329): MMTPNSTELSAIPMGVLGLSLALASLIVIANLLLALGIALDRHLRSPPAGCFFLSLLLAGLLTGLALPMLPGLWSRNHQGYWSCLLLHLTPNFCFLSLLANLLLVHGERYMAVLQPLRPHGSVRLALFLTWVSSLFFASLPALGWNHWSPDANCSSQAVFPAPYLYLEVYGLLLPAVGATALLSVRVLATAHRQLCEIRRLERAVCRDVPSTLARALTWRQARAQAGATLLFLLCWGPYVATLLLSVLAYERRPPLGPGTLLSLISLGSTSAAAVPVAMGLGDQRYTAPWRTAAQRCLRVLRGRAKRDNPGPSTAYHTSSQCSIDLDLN
The experiment in a line: Mouse TGR5 luminescent cAMP production assay (HEK293-EBNA cells, DiscoveRx cAMP XS+ kit). In kind it is cell-based. The conditions noted are these: HEK293-EBNA cells overexpressing mouse TGR5, luminescent cAMP assay; read-out: Mouse TGR5 Lum. cAMP Activity (EC50). As to the method:
Mouse TGR5 cAMP Production Assay
Compounds of the present invention were evaluated for their ability to induce cAMP production in HEK-EBNA cells overexpressing the mouse TGR5 receptor. Human embryonic kidney cells (HEK293-EBNA) stably expressing mouse TGR5 receptor were established using the following procedure. Specifically, a commercially obtained gene encoding mouse TGR5 (accession number BC116914) from Thermo Scientific (Waltham, Mass.) was cloned into an episomal expression vector. The resulting expression plasmid was then transfected into 293 c18 (ATCC® CRL10852™) cells, which express the Epstein-Barr virus nuclear antigen EBNA1 and can support the replication of episomal vectors. Selection for the plasmid was maintained with Hygromycin B. Cells were cultured and maintained in DMEM (Sigma; cat #6429) supplemented with 10% Fetal Bovine Serum, 1% penicillin/streptomycin, 2 mM L-alanine L-glutamine (GlutaMax), and 250 μg/mL Hygromycin.
We developed two cAMP production assays.
(i) Luminescent cAMP Production Assay
In this first cAMP production assay, the cAMP production was measured using DiscoveRx's cAMP XS+ kit following the manufacturer's recommended protocol. Briefly, HEK293-EBNA cells stably overexpressing mouse TGR5 were harvested using non-enzymatic cell dissociation buffer (Sigma-Aldrich, St. Louis, Mo.), spun down, then resuspended in serum-free DMEM with 500 μM IBMX at a density of 1.25×10^6 cells/mL. 500 μL of cAMP antibody solution was added to 500 μL of cell suspension and incubated at room temperature for 20 min.
Test compounds were serially diluted (half-log dilutions) in DMSO and then further diluted 1:50 in PBS, 10 mM HEPES buffer. 2 μL of serially diluted compound was added to a 384-well low volume plate (Greiner cat #784075) and centrifuged briefly. 2 μl of the cell/cAMP antibody mixture was then added to each compound-containing well and allowed to incubate at room temperature for one (1) hour. Following incubation, the XS+ kits' ED/Lysis/CL Substrate Working Solution was prepared following the manufacturer's recommended protocol and 4 μL was added to each well of the plate. The plate was then incubated for one (1) hour at room temperature. Following incubation, 4 μL of (Enzyme Acceptor) EA reagent was added to the plate and allowed to incubate overnight at room temperature. Luminescent signal was then detected using the Viewlux instrument (PerkinElmer, Waltham, Mass.).
In Table 52, EC50 values for both human and mouse cells were determined according to the TGR5 cAMP assays described above. […]

For a further assay, the target named is T2, human TGR5 receptor (Homo sapiens, UniProt Q8TDU6).
T2 construct: host or cells: CHO-K1 (hTGR5-CHO)
T2 sequence (Q8TDU6 1-330): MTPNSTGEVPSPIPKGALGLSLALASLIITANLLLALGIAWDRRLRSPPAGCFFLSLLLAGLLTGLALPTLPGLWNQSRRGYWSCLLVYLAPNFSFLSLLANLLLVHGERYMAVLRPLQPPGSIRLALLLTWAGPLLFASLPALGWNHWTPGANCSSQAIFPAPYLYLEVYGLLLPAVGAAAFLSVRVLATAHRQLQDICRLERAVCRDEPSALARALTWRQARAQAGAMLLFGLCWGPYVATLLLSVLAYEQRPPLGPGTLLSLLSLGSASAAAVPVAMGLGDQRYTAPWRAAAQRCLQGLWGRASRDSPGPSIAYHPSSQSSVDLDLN
The assay can be described thus: Human TGR5 cAMP production assay (hTGR5-CHO cells, DiscoveRx cAMP XS+ kit). In kind it is cell-based. The conditions noted are these: luminescent cAMP assay, read-out: Human TGR5 Lum. cAMP Activity (EC50). The gist of the method: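 EC50 values come from luminescent enzyme-complementation cAMP detection, read after overnight incubation. Beforehand, hTGR5-expressing CHO-K1 cells with IBMX and anti-cAMP antibody were exposed 1 h at room temperature to serially diluted (half-log) compounds.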
For orientation: Changes in cAMP serve as a functional read-out for many G protein-coupled receptors.

As a reminder, the EC50 is the concentration giving half of the maximal effect. In the case of `N#Cc1ccc(CCNC(=O)C2CCN2c2cc(OC3CCOCC3)nc(C(F)(F)F)n2)cc1` (stereo not shown) [Compound 244, N-(4-cyanophenethyl)-1-(6-((tetra-hydro-2H-pyran-4-yl)oxy)-2-(trifluoromethyl)pyrimidin-4-yl)azetidine-2-carboxamide], the EC50 was less than 100 nM on mouse TGR5 receptor and 100 to 999 nM on human TGR5 receptor.
For `CCCCCCc1ccc(-c2cc(N3CCC[C@H]3C(=O)NCCc3ccc(C#N)cc3)nc(C(F)(F)F)n2)s1` [Compound 139, (S)—N-(4-cyanophenethyl)-1-(6-(5-hexylthiophen-2-yl)-2-(trifluoromethyl)pyrimidin-4-yl)pyrrolidine-2-carboxamide], in that order: 1000 to 30000 nM and 1000 to 30000 nM.
Take `CC(C)(C)OC(=O)N1CCC(Oc2cc(N3CC[C@H]3C(=O)NCCc3ccc(C#N)cc3)nc(C(F)(F)F)n2)CC1` [Compound 243, (S)-tert-butyl 4-((6-(2-((4-cyanophenethyl)carbamoyl)azetidin-1-yl)-2-(trifluoromethyl)pyrimidin-4-yl)oxy)piperidine-1-carboxylate]: the EC50 at mouse TGR5 receptor and at human TGR5 receptor was 100 to 999 nM throughout.
In the case of `CN(C)CCN1CCN(c2cc(N3CCC[C@@H](C(=O)NCCc4ccc(C#N)cc4)C3)nc(C(F)(F)F)n2)CC1` [Compound 317, (R)-N-(4-cyanophenethyl)-1-(6-(4-(2-(dimethylamino)ethyl)piperazin-1-yl)-2-(trifluoromethyl)pyrimidin-4-yl)piperidine-3-carboxamide], the EC50 at mouse TGR5 receptor and at human TGR5 receptor was 100 to 999 nM each time.
Consider `O=C(NCCc1ccc(C(F)(F)F)cc1)[C@@H]1CCCN(c2cc(NCCO)nc(C(F)(F)F)n2)C1` [Compound 323, (R)-1-(6-((2-hydroxyethyl)amino)-2-(trifluoromethyl)pyrimidin-4-yl)-N-(4-(trifluoromethyl)phenethyl)piperidine-3-carboxamide], for which the EC50 at mouse TGR5 receptor and at human TGR5 receptor was 100 to 999 nM each time.
Take `Cc1ccc(-c2cc(N3CCC[C@H]3C(=O)NCCc3ccc(C#N)cc3)nc(C(F)(F)F)n2)o1` [Compound 166, (S)-N-(4-cyanophenethyl)-1-(6-(5-methylfuran-2-yl)-2-(trifluoromethyl)pyrimidin-4-yl)pyrrolidine-2-carboxamide]: the EC50 at mouse TGR5 receptor and on human TGR5 receptor was 100 to 999 nM each time.
Consider `N#Cc1ccc(CCNC(=O)[C@@H]2CCN2c2cc(N3CCC(CN)CC3)nc(C(F)(F)F)n2)cc1` [Compound 245, (S)-(1-(6-(4-aminomethylpiperidin-1-yl)-2-(trifluoromethyl)pyrimidin-4-yl)-N-(4-cyanophenethyl)azetidine-2-carboxamide hydrochloride], for which the EC50 at mouse TGR5 receptor and on human TGR5 receptor was 100 to 999 nM each time.
`COc1cnccc1-c1cc(N2CCC[C@H]2C(=O)NCCc2ccc(C#N)cc2)nc(C(F)(F)F)n1` [Compound 159, (S)-N-(4-cyanophenethyl)-1-(6-(3-methoxypyridin-4-yl)-2-(trifluoromethyl)pyrimidin-4-yl)pyrrolidine-2-carboxamide]: the figures for the EC50 on mouse TGR5 receptor and on human TGR5 receptor were less than 100 nM and 1000 to 30000 nM, respectively.
`COCC1CCN(c2cc(N3CCC[C@@H](C(=O)NCCc4ccc(C#N)cc4)C3)nc(C(F)(F)F)n2)CC1` [Compound 310, (R)-N-(4-cyanophenethyl)-1-(6-(4-(methoxymethyl)piperidin-1-y1)-2-(trifluoromethyl)pyrimidin-4-yl)piperidine-3-carboxamide]: the EC50 is 100 to 999 nM at mouse TGR5 receptor and less than 100 nM at human TGR5 receptor.
For `O=C(NCCc1ccc(C(F)(F)F)cc1)[C@@H]1CCCN1c1cc(NCc2ccncc2)nc(C(F)(F)F)n1` [Compound 3], in that order: 100 to 999 nM and 1000 to 30000 nM.
Consider `COCC1CCN(c2cc(N3CCC[C@H]3C(=O)NCCc3ccc(C(F)(F)F)cc3)nc(C(F)(F)F)n2)CC1` [Compound 8], for which the results for the EC50 on mouse TGR5 receptor and at human TGR5 receptor were 100 to 999 nM and less than 100 nM, respectively.
